The structures appear in SMILES notation.

This assay addresses T1, human TGR5 (Homo sapiens, UniProt Q8TDU6).
T1 construct: expressed in transfected cells; host or cells: HEK293
T1 sequence (Q8TDU6 1-330): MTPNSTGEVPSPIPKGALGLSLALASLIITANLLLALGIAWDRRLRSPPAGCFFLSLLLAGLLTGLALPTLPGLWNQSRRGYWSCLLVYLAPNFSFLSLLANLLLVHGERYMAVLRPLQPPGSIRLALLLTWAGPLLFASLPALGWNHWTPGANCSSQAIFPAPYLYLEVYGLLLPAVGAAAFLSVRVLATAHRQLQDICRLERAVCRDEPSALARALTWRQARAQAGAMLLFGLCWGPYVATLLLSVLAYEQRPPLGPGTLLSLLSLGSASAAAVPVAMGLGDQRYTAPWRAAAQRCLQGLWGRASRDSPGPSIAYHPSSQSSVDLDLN
Kind of assay: Cell-based TGR5 assay (cAMP generation, HTRF). The settings on record: HEK293 cells stably transfected with human TGR5; cAMP by HTRF; 30 minutes at 37° C.; read-out: pEC50 Human TGR5 (converted). In short, it runs like this:
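Read-out was HTRF detection of cAMP, converted to concentration via a standard curve and fitted (3-parameter logistic) for pEC50 and maximal response. Agonist stimulation used HEK293 cells stably transfected with human TGR5, incubated 30 min at 37° C in IBMX-containing buffer at 0.05 nM to 10 μM compound.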
For orientation: In TR-FRET formats the signal depends on donor and acceptor labels being close together.
For the molecule `O=C(CCCSc1ccc(Cl)c(COC2(c3cnccc3-c3ccccc3OC3CC3)CC2)c1)N(CCO)C[C@H](O)[C@@H](O)[C@H](O)[C@H](O)CO` [Compound I-660, 4-{[4-chloro-3-({1-[4-(2-cyclopropoxyphenyl)pyridin-3-yl]cyclopropoxy}methyl)phenyl]sulfanyl}-N-(2-hydroxyethyl)-N-[(2S,3R,4R,5R)-2,3,4,5,6-pentahydroxyhexyl]butanamide], the EC50 was 126 to 1000 nM. In the case of `O=C(CCCSc1ccc(Cl)c(COC2(c3cnccc3-c3ccccc3OC3CC3)CC2)c1)N(CCCO)C[C@H](O)[C@@H](O)[C@H](O)[C@H](O)CO` [Compound I-661, 4-{[4-chloro-3-({1-[4-(2-cyclopropoxyphenyl)pyridin-3-yl]cyclopropoxy}methyl)phenyl]sulfanyl}-N-(3-hydroxypropyl)-N-[(2S,3R,4R,5R)-2,3,4,5,6-pentahydroxyhexyl]butanamide] it was less than 100 nM; in that of `CN(C)CCN(C[C@H](O)[C@@H](O)[C@H](O)[C@H](O)CO)C(=O)CCCSc1ccc(Cl)c(COC2(c3cnccc3-c3ccccc3OC3CC3)CC2)c1` [Compound I-662, 4-{[4-chloro-3-({1-[4-(2-cyclopropoxyphenyl)pyridin-3-yl]cyclopropoxy}methyl)phenyl]sulfanyl}-N-[2-(dimethylamino)ethyl]-N-[(2S,3R,4R,5R)-2,3,4,5,6-pentahydroxyhexyl]butanamide], 126 to 1000 nM. For `NC(=O)CN(C[C@H](O)[C@@H](O)[C@H](O)[C@H](O)CO)C(=O)CCCSc1ccc(Cl)c(COC2(c3cnccc3-c3ccccc3OC3CC3)CC2)c1` [Compound I-663, N-(carbamoylmethyl)-4-{[4-chloro-3-({1-[4-(2-cyclopropoxyphenyl)pyridin-3-yl]cyclopropoxy}methyl)phenyl]sulfanyl}-N-[(2S,3R,4R,5R)-2,3,4,5,6-pentahydroxyhexyl]butanamide], the EC50 is 126 to 1000 nM.

Turning to `COCCN(C[C@H](O)[C@@H](O)[C@H](O)[C@H](O)CO)C(=O)CCCSc1ccc(Cl)c(COC2(c3cnccc3-c3ccccc3OC3CC3)CC2)c1` [Compound I-664, 4-{[4-chloro-3-({1-[4-(2-cyclopropoxyphenyl)pyridin-3-yl]cyclopropoxy}methyl)phenyl]sulfanyl}-N-(2-methoxyethyl)-N-[(2S,3R,4R,5R)-2,3,4,5,6-pentahydroxyhexyl]butanamide], the EC50 was less than 100 nM. With `CS(=O)(=O)CCN(C[C@H](O)[C@@H](O)[C@H](O)[C@H](O)CO)C(=O)CCCSc1ccc(Cl)c(COC2(c3cnccc3-c3ccccc3OC3CC3)CC2)c1` [Compound I-665, 4-{[4-chloro-3-({1-[4-(2-cyclopropoxyphenyl)pyridin-3-yl]cyclopropoxy}methyl)phenyl]sulfanyl}-N-(2-methanesulfonylethyl)-N-[(2S,3R,4R,5R)-2,3,4,5,6-pentahydroxyhexyl]butanamide], the EC50 was 126 to 1000 nM. In the case of `CCCN(C[C@H](O)[C@@H](O)[C@H](O)[C@H](O)CO)C(=O)CCCSc1ccc(Cl)c(COC2(c3cnccc3-c3ccccc3OC3CC3)CC2)c1` [Compound I-666, 4-{[4-chloro-3-({1-[4-(2-cyclopropoxyphenyl)pyridin-3-yl]cyclopropoxy}methyl)phenyl]sulfanyl}-N-[(2S,3R,4R,5R)-2,3,4,5,6-pentahydroxyhexyl]-N-propylbutanamide] it was less than 100 nM; in that of `O=C(CCCSc1ccc(Cl)c(COC2(c3cnccc3-c3ccccc3OC3CC3)CC2)c1)N(Cc1ccccc1)C[C@H](O)[C@@H](O)[C@H](O)[C@H](O)CO` [Compound I-667, N-benzyl-4-{[4-chloro-3-({1-[4-(2-cyclopropoxyphenyl)pyridin-3-yl]cyclopropoxy}methyl)phenyl]sulfanyl}-N-[(2S,3R,4R,5R)-2,3,4,5,6-pentahydroxyhexyl]butanamide], 126 to 1000 nM. In the case of `CC(C)N(C[C@H](O)[C@@H](O)[C@H](O)[C@H](O)CO)C(=O)CCCSc1ccc(Cl)c(COC2(c3cnccc3-c3ccccc3OC3CC3)CC2)c1` [Compound I-668, 4-{[4-chloro-3-({1-[4-(2-cyclopropoxyphenyl)pyridin-3-yl]cyclopropoxy}methyl)phenyl]sulfanyl}-N-[(2S,3R,4R,5R)-2,3,4,5,6-pentahydroxyhexyl]-N-(propan-2-yl)butanamide] it was less than 100 nM. On to `O=C(CCCSc1ccc(Cl)c(COC2(c3cnccc3-c3ccccc3OC3CC3)CC2)c1)N(C[C@H](O)[C@@H](O)[C@H](O)[C@H](O)CO)C1CCOCC1` [Compound I-669, 4-{[4-chloro-3-({1-[4-(2-cyclopropoxyphenyl)pyridin-3-yl]cyclopropoxy}methyl)phenyl]sulfanyl}-N-(oxan-4-yl)-N-[(2S,3R,4R,5R)-2,3,4,5,6-pentahydroxyhexyl]butanamide], for which the EC50 was 126 to 1000 nM. In the case of `CNC(=O)CN(C[C@H](O)[C@@H](O)[C@H](O)[C@H](O)CO)C(=O)CCCSc1ccc(Cl)c(COC2(c3cnccc3-c3ccccc3OC3CC3)CC2)c1` [Compound I-670, 4-{[4-chloro-3-({1-[4-(2-cyclopropoxyphenyl)pyridin-3-yl]cyclopropoxy}methyl)phenyl]sulfanyl}-N-[(methylcarbamoyl)methyl]-N-[(2S,3R,4R,5R)-2,3,4,5,6-pentahydroxyhexyl]butanamide] it was 126 to 1000 nM. In the case of `CN(C)C(=O)CCN(C[C@H](O)[C@@H](O)[C@H](O)[C@H](O)CO)C(=O)CCCSc1ccc(Cl)c(COC2(c3cnccc3-c3ccccc3OC3CC3)CC2)c1` [Compound I-671, 4-{[4-chloro-3-({1-[4-(2-cyclopropoxyphenyl)pyridin-3-yl]cyclopropoxy}methyl)phenyl]sulfanyl}-N-[2-(dimethylcarbamoyl)ethyl]-N-[(2S,3R,4R,5R)-2,3,4,5,6-pentahydroxyhexyl]butanamide] it was 126 to 1000 nM; in that of `CCNC(=O)CCN(C[C@H](O)[C@@H](O)[C@H](O)[C@H](O)CO)C(=O)CCCSc1ccc(Cl)c(COC2(c3cnccc3-c3ccccc3OC3CC3)CC2)c1` [Compound I-672, 4-{[4-chloro-3-({1-[4-(2-cyclopropoxyphenyl)pyridin-3-yl]cyclopropoxy}methyl)phenyl]sulfanyl}-N-[2-(ethylcarbamoyl)ethyl]-N-[(2S,3R,4R,5R)-2,3,4,5,6-pentahydroxyhexyl]butanamide], 126 to 1000 nM; in that of `COCCCN(C[C@H](O)[C@@H](O)[C@H](O)[C@H](O)CO)C(=O)CCCSc1ccc(Cl)c(COC2(c3cnccc3-c3ccccc3OC3CC3)CC2)c1` [Compound I-673, 4-{[4-chloro-3-({1-[4-(2-cyclopropoxyphenyl)pyridin-3-yl]cyclopropoxy}methyl)phenyl]sulfanyl}-N-(3-methoxypropyl)-N-[(2S,3R,4R,5R)-2,3,4,5,6-pentahydroxyhexyl]butanamide], 126 to 1000 nM. In the case of `CN(C)C(=O)CN(C[C@H](O)[C@@H](O)[C@H](O)[C@H](O)CO)C(=O)CCCSc1ccc(Cl)c(COC2(c3cnccc3-c3ccccc3OC3CC3)CC2)c1` [Compound I-674, 4-{[4-chloro-3-({1-[4-(2-cyclopropoxyphenyl)pyridin-3-yl]cyclopropoxy}methyl)phenyl]sulfanyl}-N-[(dimethylcarbamoyl)methyl]-N-[(2S,3R,4R,5R)-2,3,4,5,6-pentahydroxyhexyl]butanamide] it was 126 to 1000 nM; in that of `NC(=O)CCN(C[C@H](O)[C@@H](O)[C@H](O)[C@H](O)CO)C(=O)CCCSc1ccc(Cl)c(COC2(c3cnccc3-c3ccccc3OC3CC3)CC2)c1` [Compound I-675, N-(2-carbamoylethyl)-4-{[4-chloro-3-({1-[4-(2-cyclopropoxyphenyl)pyridin-3-yl]cyclopropoxy}methyl)phenyl]sulfanyl}-N-[(2S,3R,4R,5R)-2,3,4,5,6-pentahydroxyhexyl]butanamide], 1260 to 10000 nM. As for `CN(C[C@H](O)[C@@H](O)[C@H](O)[C@H](O)CO)C(=O)CCSc1ccc(Cl)c(CNC2(c3cnccc3-c3ccccc3OC3CC3)CC2)c1` [Compound I-676, 3-({4-chloro-3-[({1-[4-(2-cyclopropoxyphenyl)pyridin-3-yl]cyclopropyl}amino)methyl]phenyl}sulfanyl)-N-methyl-N-[(2S,3R,4R,5R)-2,3,4,5,6-pentahydroxyhexyl]propanamide], the EC50 is less than 100 nM.

As to `CN(C[C@H](O)[C@@H](O)[C@H](O)[C@H](O)CO)C(=O)CCSc1ccc(Cl)c(COC2(c3cnccc3-c3ccccc3OC3CC3)CC2)c1` [Compound I-677, 3-{[4-chloro-3-({1-[4-(2-cyclopropoxyphenyl)pyridin-3-yl]cyclopropoxy}methyl)phenyl]sulfanyl}-N-methyl-N-[(2S,3R,4R,5R)-2,3,4,5,6-pentahydroxyhexyl]propanamide], the EC50 is less than 100 nM. In the case of `CN(C[C@H](O)[C@@H](O)[C@H](O)[C@H](O)CO)C(=O)CCCCSc1ccc(Cl)c(CNC2(c3cnccc3-c3ccccc3OC3CC3)CC2)c1` [Compound I-678, 5-({4-chloro-3-[({1-[4-(2-cyclopropoxyphenyl)pyridin-3-yl]cyclopropyl}amino)methyl]phenyl}sulfanyl)-N-methyl-N-[(2S,3R,4R,5R)-2,3,4,5,6-pentahydroxyhexyl]pentanamide] it was less than 100 nM. In the case of `CN(C[C@H](O)[C@@H](O)[C@H](O)[C@H](O)CO)C(=O)CC1(CSc2ccc(Cl)c(COC3(c4cnccc4-c4ccccc4OC4CC4)CC3)c2)CC1` [Compound I-679, 2-[1-({[4-chloro-3-({1-[4-(2-cyclopropoxyphenyl)pyridin-3-yl]cyclopropoxy}methyl)phenyl]sulfanyl}methyl)cyclopropyl]-N-methyl-N-[(2S,3R,4R,5R)-2,3,4,5,6-pentahydroxyhexyl]acetamide] it was less than 100 nM.
